Data set [1] deals with T1, human kappa-opioid receptor (KOR) (Homo sapiens, UniProt P41145).
T1 construct: expressed in transfected cells; host or cells: HEK-293T
The experiment in a line: BRET assay measuring G protein activation, antagonist competition vs U-50,488, human KOR. The class given is cell-based. The settings on record: for Inhibition of the agonist activity of U-50,488 at human KOR: concentration of agonist = 320 nM, FIG. 1. Here is the method:
(§1) Human MOR, KOR, or DOR cDNA was transfected alongside GαoB with RLuc8 inserted at position 91 (GαoB-RLuc8), Gβ1 (β1), and Gγ2 fused to the full-length mVenus at its N terminus (mVenus-γ2) (2.5 μg MOR/DOR/KOR, 0.125 μg GαoB-RLuc8, 6.25 μg β1; 6.25 μg mVenus-γ2) into HEK-293T cells (5×10^6 cells/plate) in 10-cm dishes using PEI (Polysciences Inc.; Warrington, PA) in a 1:1 ratio diluted in Opti-MEM (Life Technologies Corp.; Grand Island, NY) to assay for G protein activation as described previously.^2,3 Cells were maintained in Dulbecco's Modified Eagle Medium (high glucose #11965; Life Technologies) supplemented with 10% FBS (Premium Select, Atlanta Biologicals; Atlanta, GA) and 100 U/mL penicillin and 100 μg/mL streptomycin (#15140, Life Technologies). After 24 hours the media was changed, and the experiment was performed 24 hours later (48 hours after transfection).
(§2) Transfected cells were dissociated and resuspended in phosphate-buffered saline (PBS). Approximately 200,000 cells/well were added to a black-framed, white well 96-well plate (#60050; Perkin Elmer; Waltham, MA). The microplate was centrifuged and the cells were resuspended in phosphate-buffered saline (PBS). For agonist experiments, after 5 minutes, 5 μM of the luciferase substrate coelenterazine H was added to each well. After 5 minutes, ligands were added and the BRET signal was measured at 5 minutes on a PHERAstar FS plate reader. For antagonist competition experiments, cells were preincubated with the antagonist at varying concentrations for 30 minutes. Coelenterazine H (5 μM) was then added to each well for 5 minutes. […] The BRET signal was quantified by calculating the ratio of the light emitted by the energy acceptor, mVenus (510-540 nm), over the light emitted by the energy donor, RLuc8 (485 nm). This drug-induced BRET signal was normalized using the Emax of [D-Ala2, N-Me-Phe4, Gly5-ol]-enkephalin (DAMGO), U-50,488, or [D-Pen(2,5)]enkephalin (DPDPE) as the maximal response at MOR, KOR, and DOR respectively. Dose response curves were fit using a three-parameter logistic equation in GraphPad Prism 6.

The target of data set [2] is T1, human kappa-opioid receptor (KOR). As to conditions: Kruegel, A. C. et al. 2016; cited from earlier work.
In data set [3] the target is T2, human mu-opioid receptor (MOR) (Homo sapiens, UniProt P35372).
T2 construct: expressed in transfected cells; host or cells: HEK-293T
As to conditions: Kruegel, A. C. et al. 2016; cited from earlier work.

The target of data set [4] is T3, human delta-opioid receptor (DOR) (Homo sapiens, UniProt P41143).
T3 construct: expressed in transfected cells; host or cells: HEK-293T
The data set is described as follows: BRET assay measuring G protein activation, antagonist competition vs DPDPE, human DOR. The class given is cell-based. As to conditions: for Extent of antagonism at Human DOR: competing agonist DPDPE (50 nM). The procedure: as §1, §2
(In general: In BRET a luciferase serves as donor, and the signal depends on an acceptor being close.)

Data set [5] concerns MOR. The settings on record: Takayama 2002; Matsumoto 2004; cited from earlier work.
A short description of data set [6]: Stability in human liver microsomes. The class given is in vitro ADME. The settings on record: pH 7.4, 2 μM test compound, 0.42 mg/mL microsomal protein, 37° C., NADPH, read-out: t1/2 in human liver microsomes. Here is the method: Microsomal incubations were carried out in 96-well plates in 5 aliquots of 40 μL each (one for each time point). Liver microsomal incubation medium contained PBS (100 mM, pH 7.4), MgCl2 (3.3 mM), NADPH (3 mM), glucose-6 phosphate (5.3 mM), and glucose-6-phosphate dehydrogenase (0.67 units/ml) with 0.42 mg of liver microsomal protein per mL. Control incubations were performed replacing the NADPH-cofactor system with PBS. Test compound (2 μM, final solvent concentration 1.6%) was incubated with microsomes at 37° C., shaking at 100 rpm. Incubations were performed in duplicates. Five time points over 40 minutes were analyzed. The reactions were stopped by adding 12 volumes of 90% acetonitrile-water to incubation aliquots, followed by protein sedimentation by centrifuging at 5500 rpm for 3 minutes. Supernatants were analyzed for remaining test compound using an HPLC system coupled with a tandem mass spectrometer.
(In general: Microsomes from liver hold many membrane-bound enzymes, among them those of drug oxidation.)

For data set [7], the target named is MOR (Homo sapiens, UniProt P35372). The settings on record: Kruegel, A. C. et al. 2016; cited from earlier work.
In data set [8] the target is T2, human mu-opioid receptor (MOR). The data set is described as follows: BRET assay measuring G protein activation, agonist mode, human MOR. The class given is cell-based. The procedure: as §1, §2
The mark [9] stands for this setting: inhibition of reference agonist U-50,488 at 5x its EC50 (320 nM), read-out: Antagonist IC50, Human KOR.
Where [10] appears, read: read-out: Antagonist IC50, Human DOR.

Each structure is given as a SMILES string. Where two headings read alike, the source gives them in different places.

As to `CC[C@@H]1CN2CC[C@@]3(O)C(=Nc4cccc(OC)c43)[C@@H]2C[C@@H]1/C(=C\OC)C(=O)OC` [7-hydroxymitragynine, 7-Hydroxymitragynine], in data set [1], the IC50 turned out to be 7.9 µM, the Ki was 0.49 µM and the “Inhibition of the agonist activity of U-50,488 at human KOR” value (“Inhibition” below) is “fully inhibit”. For the same molecule, the “Type of activity at KOR” value in data set [2] is listed as “competitive kappa-opioid receptor (KOR) antagonists”. Further, the “Type of activity at MOR” value in data set [3] was “partial MOR agonists”. Besides, in data set [4], the IC50 amounted to 15.6 µM. Further, in the data set on MOR [5], the “binding affinities for the MOR” value is given as “nanomolar”. For the same molecule, in data set [6], the half-life at 2 μM came out at 4.38 h. At MOR [7], the “beta-arrestin recruitment at MOR” value is “failing to recruit beta-arrestin”. The molecule also registered an Emax in data set [8] (normalized to Emax of DAMGO) of 60%.

Take `CC[C@@H]1CN2CC[C@@]3(O)C(=Nc4cccc(OC)c43)[C@@H]2C[C@@H]1/C(=C/OC)C(=O)OC` [(Z)-7-hydroxymitragynine, methyl (Z)-2-((2S,3S,7aS,12bS)-3-ethyl-7a-hydroxy-8-methoxy-1,2,3,4,6,7,7a,12b-octahydroindolo[2,3-a]quinolizin-2-yl)-3-methoxyacrylate]: the IC50 in data set [1] and in data set [4] was over 50 µM in each case. The molecule further had an Emax in data set [8] (normalized to Emax of DAMGO) of 64%.

In the case of `CC[C@@H]1CN2CCc3c([nH]c4cccc(OC)c34)[C@@H]2C[C@@H]1/C(=C/OC)C(=O)OC` [(Z)-mitragynine, methyl (Z)-2-((2S,3S,12bS)-3-ethyl-8-methoxy-1,2,3,4,6,7,12,12b-octahydroindolo[2,3-a]quinolizin-2-yl)-3-methoxyacrylate], the values for the IC50 in data set [1] (setting [9]) and in data set [4] (setting [10]) were 42 µM and over 100 µM, respectively. The “Extent of antagonism at Human DOR” value in data set [4] is listed as “partial”.

For the molecule `[2H]C([2H])([2H])O/C=C(/C(=O)OC([2H])([2H])[2H])[C@H]1C[C@H]2c3[nH]c4cccc(OC([2H])([2H])[2H])c4c3CCN2C[C@H]1CC` [Compound 18, Methyl-d3 (E)-2-((2S,3S,12bS)-3-ethyl-8-(methoxy-d3)-1,2,3,4,6,7,12,12b-octahydroindolo[2,3-a]quinolizin-2-yl)-3-(methoxy-d3)acrylate], in data set [6], the half-life at 2 μM worked out at 0.585 h.

`[2H]CO/C=C(/C(=O)OC([2H])([2H])[2H])[C@H]1C[C@H]2C3=Nc4cccc(OC([2H])([2H])[2H])c4[C@@]3(O)CCN2C[C@H]1CC` [Compound 19, Methyl-d3 (E)-2-((2S,3S,7aS,12bS)-3-ethyl-7a-hydroxy-8-(methoxy-d3)-1,2,3,4,6,7,7a,12b-octahydroindolo[2,3-a]quinolizin-2-yl)-3-(methoxy-d)acrylate]: the half-life at 2 μM in data set [6] worked out at 6.57 h.

On to `CC[C@@H]1CN2CC[C@]3(Nc4cccc(OC)c4C3=O)[C@@H]2C[C@@H]1/C(=C\OC)C(=O)OC` [mitragynine pseudoindoxyl, methyl (E)-2-((2S,6′S,7′S,8a′S)-6′-ethyl-4-methoxy-3-oxo-2′,3′,6′,7′,8′,8a′-hexahydro-5′H-spiro[indoline-2,1′-indolizin]-7′-yl)-3-methoxyacrylate], for which, in data set [1], the IC50 was 4.8 µM and the “Inhibition” value is listed as “fully inhibit”. For the same molecule, the “Type of activity at KOR” value in data set [2] is recorded as “competitive kappa-opioid receptor (KOR) antagonists”. The “Type of activity at MOR” value in data set [3] was “partial MOR agonists”. The molecule also yielded an IC50 in data set [4] of 0.609 µM. Further, the “beta-arrestin recruitment at MOR” value on MOR [7] is “failing to recruit beta-arrestin”. In addition, in data set [8], the midpoint of the response, the EC50, lay at 0.0145 µM. Besides, the Emax in data set [8] (normalized to Emax of DAMGO) was found to be 52%.

`CC[C@@H]1CN2CCc3c([nH]c4cccc(OC)c34)[C@@H]2C[C@@H]1/C(=C\OC)C(=O)OC` [mitragynine, Mitragynine]: the Ki in data set [1] (Schild analysis, read-out: Schild pA2 (an estimate of Ki), Human KOR (converted)) was 1.4 µM. The “Inhibition” value in data set [1] is reported as “fully inhibit”. The IC50 in data set [1] (setting [9]) was 8.5 µM; in data set [4] (setting [10]) it was over 50 µM. Moreover, the “Type of activity at KOR” value in data set [2] is on record as “competitive kappa-opioid receptor (KOR) antagonists”. For the same molecule, the “Type of activity at MOR” value in data set [3] is given as “partial MOR agonists”. For the same molecule, the “Extent of antagonism at Human DOR” value in data set [4] is recorded as “partial”. In addition, in the data set with MOR [5], the “binding affinities for the MOR” value is listed as “nanomolar”. Besides, the half-life at 2 μM in data set [6] came to 0.447 h. For the same molecule, the “beta-arrestin recruitment at MOR” value at MOR [7] was “failing to recruit beta-arrestin”. Also, in data set [8] (normalized to Emax of DAMGO), the “Emax, Human MOR” value was 34%.

Usually IC50 stands for the concentration needed to halve the response being measured. Usually Ki stands for a measure of affinity in units of concentration, obtained from inhibition or displacement. As usually defined, the Emax is the size of the effect at its maximum, as opposed to the concentration needed. One may read the EC50 as the concentration giving half of the maximal effect.

(Values after patent publication US11912707B2 (priority 2016, dated 2024).)
